The record followed here is patent publication US8877946B2, “Benzylidene-indolinone compounds and their medical use” (National University of Singapore, priority 2011, dated 2014).

Molecules are shown by their SMILES.

The subject of the experiment is HuH7 cells. As to the kind of experiment: MTT antiproliferative (growth inhibition) assay on HuH7 cells. Format: cell-based, human. The following applies: Homo sapiens, Huh-7, MTT, 72 h incubation, mean and SD of 3 or more independent determinations (Tables 1-8), read-out: IC 50. The text has this: MTT was purchased from DUCHEFA Biochemie ([…]). Sunitinib, and sodium dodecyl sulfate, bovine serum albuminwere obtained from Sigma Aldrich (Singapore). Sorafenib was purchase from Ontario Chem. Fetal bovine serum (FBS) was obtained from Invitrogen. Human hepatocellular carcinoma cells (HuH-7 and Hep G2), and human diploid fibroblast strain (IMR 90). HuH7 was obtained as gifts from Dr Ho Han Kiat, Department of Pharmacy, NUS. IMR90 and Hep G2 were purchased from American Type Culture Collection (ATCC). HuH-7 cells were cultured in DMEM (Dulbecco's Modified Eagle Medium, high glucose) with 10% v/v fetal bovine serum (FBS), 100 mg/L penicillin G and 100 mg/L streptomycin. IMR 90 cell were cultured in EMEM (Eagle's Minimum Essential Medium), with 10% v/v FBS and 100 mg/L penicillin G and 100 mg/L streptomycin. The cells were sub-cultured when HuH7 or Hep G2 reached a density of 70-80×10^5 cell/T75 flask, and IMR 90 reached 20×10^5 cell/T75 flask. Cells were used within 2-10 passages for viability experiments.
The anti-proliferative activity of the test compounds were determined by the MTT assay. An aliquot (200 μL, 3×10^4 cells/mL for HuH7, 3.75×10^4 cells/mL for Hep G2, and 2×10^4 cells/mL for IMR 90) of medium was added to each well of the microtitre plate. […] The existing medium was removed from each well and replaced by fresh medium (200 μL) containing a known concentration of test compound. The final concentration of DMSO in each well was maintained at 0.5% v/v. (1% v/v was also utilized if the compounds were not soluble) The test compounds were incubated with the cells for another 72 h at 37 deg C., 5% CO2. The medium was then removed from the well and replaced with FBS free medium (200 μL) and MTT (50 μL of 2 mg/mL solution in phosphate buffer saline, pH 7.4). The phosphate buffer saline comprises 10 mM of potassium phosphate and 137 mM sodium chloride. After incubation (3 h) at 37 deg C., 5% CO2, the supernatant was removed and a solution of 200 μL DMSO and 25 μL Sorenson buffer (0.1 M glycine, 0.1 M sodium chloride, adjusted to pH 10.5 with 0.1 M sodium hydroxide) was added to dissolve the formazan crystals in each well. Vehicle control were cells grown in 1% v/v DMSO/Medium for 72 h, 37 deg C., 5% CO2 while blank controls were wells that contained only 200 μL DMSO and 25 μL Sorenson buffer. Absorbances were measured at 570 nm on a microplate reader (Tecan, Infinite 200). The viability of cells at a given concentration of test compound was determined from the expression:
[formula] where abs_compound=absorbance of wells containing cells and test compound, abs_vehicle (Not the same as above. Change to abs_vehicle)=absorbance of vehicle control and abs_blank=absorbance of blank control.
Each concentration of test compound was evaluated at least 3 times on separate occasions, and two different stock solution were used. The IC50 value (concentration that inhibited 50% of cell growth) was determined from the sigmoidal curve obtained by plotting percentage viability versus logarithmic concentration of test compound using GraphPad Prism 5 (San Diego, USA).
Regarding `O=C1Nc2ccc(F)c(F)c2C1=Cc1ccccc1C(F)(F)F` (mixture of isomers) [Compound 6-5, (E/Z)-4,5-Difluoro-3-(2-trifluoromethyl-benzylidene)-1,3-dihydro-indol-2-one], the IC50 is more than 30 µM.

As for `CS(=O)(=O)c1cccc(C=C2C(=O)Nc3ccc(F)c(F)c32)c1` (mixture of isomers) [Compound 6-9, (E/Z)-4,5-Difluoro-3-(3-methanesulfonylbenzylidene)-1,3-dihydro-indol-2-one], the IC50 was 13.9 ± 2.03 µM.

`O=C1Nc2cc(Cl)ccc2/C1=C\c1ccccc1` [Compound 1-1, (E)-3-Benzylidene-6-chloro-1,3-dihydro-indol-2-one]: the IC50 turned out to be 17.5 ± 3.54 µM.

Take `O=C1Nc2cc(Cl)ccc2/C1=C\c1cccc(F)c1` [Compound 1-3, (E)-6-Chloro-3-(3-fluoro-benzylidene)-1,3-dihydro-indol-2-one]: the IC50 was determined as 10 ± 0.87 µM.

Consider `O=C1Nc2cc(Cl)ccc2/C1=C\c1ccc(F)cc1` [Compound 1-4, (E)-6-Chloro-3-(4-fluoro-benzylidene)-1,3-dihydro-indol-2-one], for which the IC50 worked out at 12.9 ± 0.95 µM.

For `Cc1cccc(/C=C2/C(=O)Nc3cc(Cl)ccc32)c1` [Compound 1-5, (E)-6-Chloro-3-(3-methyl-benzylidene)-1,3-dihydro-indol-2-one], the IC50 was 11 ± 0.28 µM.

Turning to `COc1ccccc1/C=C1/C(=O)Nc2cc(Cl)ccc21` [Compound 1-6, (E)-6-Chloro-3-(2-methoxy-benzylidene)-1,3-dihydro-indol-2-one], the IC50 was more than 30 µM.

For `COc1cccc(/C=C2/C(=O)Nc3cc(Cl)ccc32)c1` [Compound 1-7, (E)-6-Chloro-3-(3-methoxy-benzylidene)-1,3-dihydro-indol-2-one], the IC50 was 12.2 ± 0.64 µM.

As for `COc1ccc(/C=C2/C(=O)Nc3cc(Cl)ccc32)cc1` [Compound 1-8, (E)-6-Chloro-3-(4-methoxy-benzylidene)-1,3-dihydro-indol-2-one], the IC50 was more than 30 µM.

For `O=C1Nc2cc(Cl)ccc2/C1=C\c1ccccc1C(F)(F)F` [Compound 1-9, (E)-6-Chloro-3-(2-trifluoromethyl-benzylidene)-1,3-dihydro-indol-2-one], the IC50 stood at 24.1 ± 5.29 µM.

As for `O=C1Nc2cc(Cl)ccc2/C1=C\c1ccc(C(F)(F)F)cc1` [Compound 1-11, (E)-6-Chloro-3-(4-trifluoromethyl-benzylidene)-1,3-dihydro-indol-2-one], the IC50 came to 11 ± 1.78 µM.

Consider `O=C1Nc2cc(Cl)ccc2C1=Cc1ccc(F)c(F)c1` [Compound 1-12, (E)-6-Chloro-3-(3,4-difluoro-benzylidene) 1,3-dihydro-indolin-2-one], for which the IC50 turned out to be 16.7 ± 3.4 µM.

Turning to `O=C1Nc2cc(Cl)ccc2/C1=C\c1cccc(OC(F)(F)F)c1` [Compound 1-14, (E)-6-Chloro-3-(3-trifluoromethoxyl-benzylidene)-1,3-dihydro-indol-2-one], the IC50 turned out to be 5.06 ± 0.74 µM.

For `O=C1Nc2cc(Cl)ccc2C1=Cc1ccc(OC(F)(F)F)cc1` [Compound 1-15, (E)-6-Chloro-3-(4-trifluoromethoxyl-benzylidene)-1,3-dihydro-indol-20-one], the IC50 was 10.1 ± 1.73 µM.

In the case of `CS(=O)(=O)c1cccc(/C=C2/C(=O)Nc3cc(Cl)ccc32)c1` [Compound 1-16, (E)-6-Chloro-3-(3-methanesulfonyl-benzylidene)-1,3-dihydro-indol-2-one], the IC50 is 10.8 ± 3.72 µM.

On to `NS(=O)(=O)c1cccc(/C=C2/C(=O)Nc3cc(Cl)ccc32)c1` [Compound 1-17, (E) 3-(6-Chloro-2-oxo-1,2-dihydro-indol-3-ylidenemethyl)-benzene-sulfonamide], for which the IC50 worked out at 3.41 ± 0.38 µM.

Take `N#Cc1cccc(/C=C2/C(=O)Nc3cc(Cl)ccc32)c1` [Compound 1-19, (E) 3-(6-Chloro-2-oxo-1,2-dihydro-indol-3-ylidenemethyl)-benzonitrile]: the IC50 worked out at 7.36 ± 0.3 µM.

As to `CN(C)S(=O)(=O)c1cccc(/C=C2/C(=O)Nc3cc(Cl)ccc32)c1` [Compound 1-20, (E)-3-(6-Chloro-2-oxo-1,2-dihydro-indol-3-ylidenemethyl)-N,N-dimethyl-benzenesulfonamide], the IC50 came out at 4.87 ± 0.36 µM.

On to `O=C1Nc2ccc(Cl)cc2/C1=C\c1ccccc1` [Compound 2-1, (E)-3-Benzylidene-5-chloro-1,3-dihydro-indol-2-one], for which the IC50 is 21.3 ± 2.22 µM.

Regarding `O=C1Nc2ccc(Cl)cc2/C1=C\c1ccccc1F` [Compound 2-2, (E)-5-Chloro-3-(2-fluoro-benzylidene)-1,3-dihydro-indol-2-one], the IC50 is more than 30 µM.

With `O=C1Nc2ccc(Cl)cc2/C1=C\c1cccc(F)c1` [Compound 2-3, (E)-5-Chloro-3-(3-fluoro-benzylidene)-1,3-dihydro-indol-2-one], the IC50 was determined as 15.1 ± 2.91 µM.

Regarding `O=C1Nc2ccc(Cl)cc2/C1=C\c1ccc(F)cc1` [Compound 2-4, (E)-5-Chloro-3-(4-fluoro-benzylidene)-1,3-dihydro-indol-2-one], the IC50 amounted to 12.7 ± 2.82 µM.

Turning to `COc1cccc(C=C2C(=O)Nc3ccc(Cl)cc32)c1` [Compound 2-5, (E)-5-Chloro-3-(3-methoxybenzylidene)-dihydro-indol-2-one], the IC50 was more than 30 µM.

On to `O=C1Nc2ccc(Cl)cc2/C1=C\c1ccccc1C(F)(F)F` [Compound 2-6, (E)-5-Chloro-3-(2-trifluoromethylbenzylidene)-1,3-dihydro-indol-2-one], for which the IC50 is more than 30 µM.

In the case of `O=C1Nc2ccc(Cl)cc2/C1=C\c1ccc(C(F)(F)F)cc1` [Compound 2-8, (E)-5-Chloro-3-(4-trifluoromethylbenzylidene)-1,3-dihydro-indol-2-one], the IC50 stood at 7.92 ± 1.45 µM.

Regarding `O=C1Nc2ccc(Cl)cc2/C1=C\c1ccc(F)c(F)c1` [Compound 2-9, (E)-5-Chloro-3-(3,4-difluoro-benzylidene)-1,3-dihydro-indol-2-one], the IC50 amounted to 11.4 ± 1.45 µM.

Regarding `O=C1Nc2ccc(Cl)cc2/C1=C\c1cccc(OC(F)(F)F)c1` [Compound 2-10, (E)-5-Chloro-3-(3-trifluoromethoxyl-benzylidene)-1,3-dihydro-indol-2-one], the IC50 came out at 3.83 ± 0.25 µM.

For `CS(=O)(=O)c1cccc(/C=C2/C(=O)Nc3ccc(Cl)cc32)c1` [Compound 2-11, (E)-5-Chloro-3-(3-methanesulfonyl-benzylidene)-1,3-dihydro-indol-2-one], the IC50 turned out to be 6.53 ± 0.51 µM.

With `NS(=O)(=O)c1cccc(C=C2C(=O)Nc3ccc(Cl)cc32)c1` [Compound 2-12, E/Z 3-(5-Chloro-2-oxo-1,2-dihydro-indol-3-ylidenemethyl)-benzenesulfonamide], the IC50 stood at 9.66 ± 1.59 µM.

As to `N#Cc1cccc(/C=C2/C(=O)Nc3ccc(Cl)cc32)c1` [Compound 2-13, (E) 3-(5-Chloro-2-oxo-1,2-dihydro-indol-3-ylidenemethyl)-benzonitrile], the IC50 amounted to 10.4 ± 1.99 µM.

Regarding `CNS(=O)(=O)c1cccc(/C=C2/C(=O)Nc3ccc(Cl)cc32)c1` [Compound 2-14, (E)-3-(5-Chloro-2-oxo-1,2-dihydro-indol-3-ylidenemethyl)-N-methyl-benzenesulphonamide], the IC50 was 3.13 ± 0.07 µM.

In the case of `O=C1Nc2cc(F)ccc2/C1=C\c1cccc(F)c1` [Compound 3-3, (E)-6-Fluoro-3-(3-fluoro-benzylidene)-1,3-dihydro-indol-2-one], the IC50 amounted to 2.41 ± 1.07 µM.

Consider `O=C1Nc2cc(F)ccc2/C1=C\c1ccccc1C(F)(F)F` [Compound 3-5, (E)-6-Fluoro-3-(2-trifluoromethyl-benzylidene)-1,3-dihydro-indol-2-one], for which the IC50 is more than 30 µM.

`O=C1Nc2cc(F)ccc2/C1=C\c1cccc(C(F)(F)F)c1` [Compound 3-6, (E)-6-Fluoro-3-(3-trifluoromethyl-benzylidene)-1,3-dihydro-indol-2-one, reference compound]: the IC50 came to 1.41 ± 0.13 µM.

As to `O=C1Nc2cc(F)ccc2/C1=C\c1ccc(C(F)(F)F)cc1` [Compound 3-7, (E)-6-Fluoro-3-(4-trifluoromethyl-benzylidene)-1,3-dihydro-indol-2-one], the IC50 came out at 8.42 ± 0.27 µM.
